Results published in patent publication US4032659A (priority 1975, dated 1977).
Where a name gives a salt, the structure may show the parent alone.

Test system: Influenza Ann Arbor virus
Assay: Chemoprophylaxis of Influenza Ann Arbor (A1) virus infection in mice
Assay type: in vivo, mouse
[1] = subcutaneous, total dose .003 μg

Row | SMILES | No. animals surviving after 6 days (oral, total dose 30 pg) | Survivors (oral, total dose 30 pg) | No. animals surviving after 6 days (oral, total dose 300 pg) | Survivors (oral, total dose 300 pg) | No. animals surviving after 6 days (oral, total dose 3 ng) | Survivors (oral, total dose 3 ng) | No. animals surviving after 6 days (oral, total dose 30 ng) | Survivors (oral, total dose 30 ng) | No. animals surviving after 6 days (oral, total dose 300 ng) | Survivors (oral, total dose 300 ng) | No. animals surviving after 6 days (oral, total dose 3 μg) | Survivors (oral, total dose 3 μg) | No. animals surviving after 6 days (oral, total dose 30 μg) | Survivors (oral, total dose 30 μg) | No. animals surviving after 6 days (oral, total dose 300 μg) | Survivors (oral, total dose 300 μg) | Survivors (oral, total dose 3 mg) | further results
1 | CN(C)N [1,1-dimethylhydrazine] | 5 | 0 | 3 | 0 | 3 | 1 | 2 | 0 | 3 | 0 | 2 | 0 | 1 | 1 | 3 | 0 | 0 | No. animals surviving after 6 days (oral, total dose 3 mg): 2
2 | CC(C)=NNC(N)=S [acetone, thiosemicarbazone] | 3 | 1 | 2 | 0 | 2 | 0 | 2 | 0 | 3 | 0 | 5 | 0 | 2 | 0 | 3 | 0 | – | –
3 | Cc1ccccc1NC(=S)NN=C1CCCC1 [cyclopentanone, 3-thio-4-o-tolylsemicarbazone] | – | 0 | – | 0 | – | 0 | – | – | – | 0 | – | 0 | – | 0 | – | 0 | 0 | No. animals surviving after 5 days (oral, total dose 30 pg): 6; No. animals surviving after 5 days (oral, total dose 300 pg): 9; No. animals surviving after 5 days (oral, total dose 3 ng): 9; No. animals surviving after 5 days (oral, total dose 30 ng): 9; No. animals surviving after 5 days (oral, total dose 300 ng): 6; No. animals surviving after 5 days (oral, total dose 3 μg): 6; No. animals surviving after 5 days (oral, total dose 300 μg): 9; No. animals surviving after 5 days (oral, total dose 3 mg): 8
4 | CCOC(=O)CC(C)=NNC(N)=S [acetoacetic acid, ethyl ester, thiosemicarbazone] | – | 0 | – | 0 | – | 0 | – | 0 | – | 0 | – | 0 | – | 0 | – | 0 | 0 | No. animals surviving after 5 days (oral, total dose 30 pg): 8; No. animals surviving after 5 days (oral, total dose 300 pg): 4; No. animals surviving after 5 days (oral, total dose 3 ng): 5; No. animals surviving after 5 days (oral, total dose 30 ng): 5; No. animals surviving after 5 days (oral, total dose 300 ng): 4; No. animals surviving after 5 days (oral, total dose 3 μg): 6; No. animals surviving after 5 days (oral, total dose 30 μg): 8; No. animals surviving after 5 days (oral, total dose 300 μg): 7; No. animals surviving after 5 days (oral, total dose 3 mg): 5
5 | CCCC(C)=NNC(N)=S [2-pentanone, thiosemicarbazone] | 2 | 0 | 2 | 0 | 2 | 0 | 2 | 0 | 1 | 0 | 1 | 0 | 1 | 1 | 0 | 0 | – | No. animals surviving after 7 days (oral, total dose 15 ng): 3; Survivors (oral, total dose 15 ng): 0; No. animals surviving after 7 days (oral, total dose 22.5 ng): 0; Survivors (oral, total dose 22.5 ng): 0; No. animals surviving after 7 days (oral, total dose 75 ng): 1; Survivors (oral, total dose 75 ng): 0; No. animals surviving after 7 days (oral, total dose 150 ng): 0; Survivors (oral, total dose 150 ng): 0; No. animals surviving after 7 days (oral, total dose 225 ng): 3; Survivors (oral, total dose 225 ng): 0; No. animals surviving after 7 days (oral, total dose 750 ng): 2; Survivors (oral, total dose 750 ng): 0; No. animals surviving after 7 days (oral, total dose 1.5 μg): 2; Survivors (oral, total dose 1.5 μg): 0; No. animals surviving after 7 days (oral, total dose 2.25 μg): 1; Survivors (oral, total dose 2.25 μg): 1
6 | CNNC [1,2-dimethylhydrazine, dihydrochloride] | 6 | 1 | 2 | 0 | 3 | 0 | 3 | 1 | 5 | 0 | 3 | 0 | 4 | 0 | 6 | 0 | 0 | No. animals surviving after 6 days (oral, total dose 3 mg): 3
7 | NC(=S)NN=C1Cc2ccccc2C1 [2-indanone, thiosemicarbazone] | – | 1 | – | 0 | – | 0 | – | 0 | – | 1 | – | 1 | – | 0 | – | 0 | – | No. animals surviving after 5 days (oral, total dose 30 pg): 8; No. animals surviving after 5 days (oral, total dose 300 pg): 8; No. animals surviving after 5 days (oral, total dose 3 ng): 5; No. animals surviving after 5 days (oral, total dose 30 ng): 9; No. animals surviving after 5 days (oral, total dose 300 ng): 8; No. animals surviving after 5 days (oral, total dose 3 μg): 8; No. animals surviving after 5 days (oral, total dose 30 μg): 8; No. animals surviving after 5 days (oral, total dose 300 μg): 6
8 | C=CCNC(=S)NN=C1Cc2ccccc2C1 [2-Indanone, 4-allylthiosemicarbazone] | – | 0 | – | 0 | – | 0 | – | 0 | – | 0 | – | 0 | – | 0 | – | 0 | 1 | No. animals surviving after 7 days (oral, total dose 30 pg): 4; No. animals surviving after 7 days (oral, total dose 300 pg): 7; No. animals surviving after 7 days (oral, total dose 3 ng): 4; No. animals surviving after 7 days (oral, total dose 30 ng): 6; No. animals surviving after 7 days (oral, total dose 300 ng): 6; No. animals surviving after 7 days (oral, total dose 3 μg): 2; No. animals surviving after 7 days (oral, total dose 30 μg): 6; No. animals surviving after 7 days (oral, total dose 300 μg): 2; No. animals surviving after 7 days (oral, total dose 3 mg): 4
9 | N=C(N)NN [aminoguanidine] | – | – | – | 1 | – | 1 | – | 2 | – | 4 | – | 3 | – | 5 | – | – | – | No. animals surviving after 7 days (oral, total dose 300 pg): 6; No. animals surviving after 7 days (oral, total dose 3 μg): 8; No. animals surviving after 7 days (oral, total dose 30 μg): 8; survival (subcutaneous, one dose level): 50%; No. animals surviving after 7 days (subcutaneous, total dose 3 μg): 6; Survivors (subcutaneous, total dose 3 μg): 2; Survivors (subcutaneous, total dose 30 μg): 2; No. animals surviving after 7 days (subcutaneous, total dose .0003 μg): 8; No. animals surviving after 7 days [1]: 8; Survivors [1]: 0; Survivors (subcutaneous, total dose .03 μg): 1; Survivors (subcutaneous, total dose .3 μg): 1
10 | NC(N)=S [Thiourea] | – | 0 | – | 0 | – | 1 | – | 0 | – | 0 | – | 0 | – | 0 | – | 1 | 0 | No. animals surviving after 7 days (oral, total dose 30 pg): 2; No. animals surviving after 7 days (oral, total dose 300 pg): 4; No. animals surviving after 7 days (oral, total dose 3 ng): 3; No. animals surviving after 7 days (oral, total dose 30 ng): 4; No. animals surviving after 7 days (oral, total dose 300 ng): 2; No. animals surviving after 7 days (oral, total dose 3 μg): 7; No. animals surviving after 7 days (oral, total dose 30 μg): 3; No. animals surviving after 7 days (oral, total dose 300 μg): 6; No. animals surviving after 7 days (oral, total dose 3 mg): 5
11 | O=C(CCNNC(=O)c1ccncc1)NCc1ccccc1 [Nialamide, nialamide, reference compound] | – | – | – | – | – | – | – | – | – | – | – | – | – | – | – | – | – | Survivors (oral, total dose 400pg): 1; Survivors (oral, total dose 4ng): 1; Survivors (oral, total dose 40ng): 0; Survivors (oral, total dose 400ng): 0; Survivors (oral, total dose 4μg): 0; Survivors (oral, total dose 400 μg): 2; Survivors (oral, total dose 4 mg): 1
12 | CCC(CC)=NNC(N)=S [3-pentanone, thiosemicarbazone] | 2 | 0 | 1 | 0 | 3 | 0 | 0 | 0 | 3 | 0 | 6 | 1 | 7 | 0 | 4 | 0 | – | No. animals surviving after 7 days (oral, total dose 12 μg): 1; Survivors (oral, total dose 12 μg): 0; No. animals surviving after 7 days (oral, total dose 18 μg): 1; Survivors (oral, total dose 18 μg): 1; No. animals surviving after 7 days (oral, total dose 24 μg): 0; Survivors (oral, total dose 24 μg): 0; No. animals surviving after 7 days (oral, total dose 60 μg): 1; Survivors (oral, total dose 60 μg): 0; No. animals surviving after 7 days (oral, total dose 90 μg): 3; Survivors (oral, total dose 90 μg): 0; No. animals surviving after 7 days (oral, total dose 120 μg): 1; Survivors (oral, total dose 120 μg): 1; No. animals surviving after 7 days (oral, total dose 150 μg): 2; Survivors (oral, total dose 150 μg): 1
13 | NC(N)=NN=Cc1c(Cl)cccc1Cl [[(2,6-dichlorobenzylidine)amino]guanidine acetate] | 4 | 0 | 2 | 1 | 4 | 0 | 1 | 0 | 1 | 0 | 2 | 0 | 3 | 0 | 1 | 0 | – | Toxicity (oral, total dose 3 mg): Toxic
14 | CCC(C)=NNC(=N)N.O=[N+]([O-])O [1-(sec-butylideneamino)guanidine, nitrate] | – | – | – | – | – | 0 | – | 0 | – | 2 | – | 0 | – | 2 | – | 0 | – | No. animals surviving after 7 days (oral, total dose 3 ng): 0; No. animals surviving after 7 days (oral, total dose 30 ng): 1; No. animals surviving after 7 days (oral, total dose 300 ng): 3; No. animals surviving after 7 days (oral, total dose 3 μg): 0; No. animals surviving after 7 days (oral, total dose 30 μg): 2; No. animals surviving after 7 days (oral, total dose 300 μg): 0
